Test system: subcutaneous transplanted tumors (CT26, LL/2, A375, MNK-45, SK-OV-3)
Assay: Inhibition of growth of subcutaneous transplanted tumors in tumor-bearing mouse model
Type: in vivo
Conditions: 10 mg/kg
Excerpt: Embodiment 4: Test of Anti-Tumor Effect (i.e., The Inhibition Effect on the Growth of Subcutaneous Transplanted Tumors in Animals) of the Anti-Tumor Compound Drug with a Tumor-Bearing Mouse Model
BALB/c ordinary mice and C57/BL6 ordinary mice, male, 18-20 g in weight, 7-8 weeks old, SPF grade, purchased from Shanghai SLAC Laboratory Animal Co., Ltd. [Laboratory Animal Quality Certificate Number: SCXK (Shanghai) 2007-0005].
Mice are given intravenous injections, and one dose group is set: cGAMP, 10 mg/kg; compound anti-tumor drug, 10 mg/kg
Positive control: cGAMP, 10 mg/kg in dose
Administration route: administration by intraperitoneal injection
Administration volume: 100 μl/animal
Number of times of administration: continuous administration for 21 days, once every day
Number of animals in each group: 10
Mouse colorectal cancer cell line CT26, mouse Lewis lung cancer cell line LL/2, human ovarian cancer cell line SK-OV-3, human melanoma cell line A375, and human gastric cancer cell line MNK-45, which are all purchased from the Cell Bank of the Chinese Academy of Sciences.
The administration is continued for 21 days. 21 days later, the mice are killed and the tumors are weighed. Tumor inhibition rate=[1−mean tumor weight of experimental group/mean tumor weight of group A)]×100%.
Data is expressed with x±s, and processed with SPSS10.0 software. […]

Nc1nc2c(ncn2[C@@H]2O[C@@H]3COP(=O)(O)O[C@H]4[C@@H](O)[C@H](n5cnc6c(N)ncnc65)O[C@@H]4COP(=O)(O)O[C@@H]2[C@@H]3O)c(=O)[nH]1 [cGAMP, Cyclic [G(2′,5′)pA(3′,5′)p]]
growth of tumors (once every day for 21 days, subcutaneous transplanted tumor models in mice): obviously inhibit the growth of tumors | weights of tumors vs negative control group (after administration for 21 days, P<0.05, P<0.01): significantly lower than those of the negative control group

From patent US20210023115A1, “COMPOSITION OF ANTI-TUMOR COMPOUND DRUG AND APPLICATION THEREOF IN FIGHTING TUMORS” (HANGZHOU XINGAO BIOTECHNOLOGY CO. LTD, priority 2018, published 2021)
